Reference: PubChem BioAssay AID1919017 (Molecular Pharmacology Branch, DTP, NCI, 2023)

System: SW1271 complex spheroids with HUVEC/MSC, growth, % test/control
Test: Anticancer human tumor SW1271 cell line growth inhibition [AhR];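 also: spheroids exposed to agents for 7 days before readout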
Conditions: for IC50: curve of first compound; for viability, T/C: stronger effect = lower value
Method in brief: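 Complex tumor spheroids co-cultured with HUVEC and human MSC stroma; AhR antagonists tested in combination with standard-of-care and investigational agents. Top concentration at or near clinical Cmax (else 10 microM), half-log dilutions; growth expressed as percent test/control.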

[1] = second compound 0.1 µM, first compound 0.0316 µM
[2] = second compound 0.1 µM, first compound 0.1 µM
[3] = second compound 0.1 µM, first compound 0.316 µM
[4] = second compound 0.1 µM, first compound 1 µM
[5] = second compound 0.1 µM, first compound 3.16 µM
[6] = second compound 0.1 µM, first compound 10 µM
[7] = second compound 0.316 µM, first compound 0.0316 µM
[8] = second compound 0.316 µM, first compound 0.1 µM
[9] = second compound 0.316 µM, first compound 0.316 µM
[10] = second compound 0.316 µM, first compound 1 µM
[11] = second compound 0.316 µM, first compound 3.16 µM
[12] = second compound 0.316 µM, first compound 10 µM
[13] = second compound 1 µM, first compound 0.0316 µM
[14] = second compound 1 µM, first compound 0.1 µM
[15] = second compound 1 µM, first compound 0.316 µM
[16] = second compound 1 µM, first compound 1 µM
[17] = second compound 1 µM, first compound 3.16 µM
[18] = second compound 1 µM, first compound 10 µM
[19] = second compound 3.16 µM, first compound 0.0316 µM
[20] = second compound 3.16 µM, first compound 0.1 µM
[21] = second compound 3.16 µM, first compound 0.316 µM
[22] = second compound 3.16 µM, first compound 1 µM
[23] = second compound 3.16 µM, first compound 3.16 µM
[24] = second compound 3.16 µM, first compound 10 µM
[25] = second compound 10 µM, first compound 0.0316 µM
[26] = second compound 10 µM, first compound 0.1 µM
[27] = second compound 10 µM, first compound 0.316 µM
[28] = second compound 10 µM, first compound 1 µM
[29] = second compound 10 µM, first compound 3.16 µM
[30] = second compound 10 µM, first compound 10 µM

| Structure (SMILES) | IC50 (second compound 0.1 µM) | IC50 (second compound 0.316 µM) | IC50 (second compound 1 µM) | IC50 (second compound 3.16 µM) | IC50 (second compound 10 µM) | viability, T/C [1] | viability, T/C [2] | viability, T/C [3] | viability, T/C [4] | viability, T/C [5] | viability, T/C [6] | viability, T/C [7] | viability, T/C [8] | viability, T/C [9] | viability, T/C [10] | viability, T/C [11] | viability, T/C [12] | viability, T/C [13] | viability, T/C [14] | viability, T/C [15] | also measured |
| --- | --- | --- | --- | --- | --- | --- | --- | --- | --- | --- | --- | --- | --- | --- | --- | --- | --- | --- | --- | --- | --- |
| Nc1ccccc1NC(=O)c1ccc(CNC(=O)OCc2cccnc2)cc1 + Cc1cncc(-c2nc(NCCc3c[nH]c4ccccc34)c3ncn(C(C)C)c3n2)c1 | 1890 nM | 1740 nM | 2490 nM | 1190 nM | < 31.6 nM | 94.7% | 110% | 95.5% | 69.8% | 34.3% | 15.8% | 109% | 104% | 97.4% | 62.9% | 35.5% | 17% | 121% | 118% | 88.9% | viability, T/C [16]: 63.1%; viability, T/C [17]: 51.9%; viability, T/C [18]: 17.1%; viability, T/C [19]: 121%; viability, T/C [20]: 107%; viability, T/C [21]: 112%; viability, T/C [22]: 52.8%; viability, T/C [23]: 36%; viability, T/C [24]: 16.7%; viability, T/C [25]: 44.2%; viability, T/C [26]: 46.3%; viability, T/C [27]: 35.3%; viability, T/C [28]: 24%; viability, T/C [29]: 18.3%; viability, T/C [30]: 14.3% |
| O=C(C=Cc1cccc(S(=O)(=O)Nc2ccccc2)c1)NO + Cc1cncc(-c2nc(NCCc3c[nH]c4ccccc34)c3ncn(C(C)C)c3n2)c1 | 1880 nM | 1390 nM | 2090 nM | 1460 nM | 210 nM | 97.2% | 93.9% | 83.2% | 68.3% | 35.5% | 16.9% | 104% | 102% | 96.8% | 61.9% | 20.2% | 16.6% | 97.4% | 97.8% | 84.5% | viability, T/C [16]: 65.4%; viability, T/C [17]: 41.7%; viability, T/C [18]: 15.9%; viability, T/C [19]: 107%; viability, T/C [20]: 115%; viability, T/C [21]: 97.7%; viability, T/C [22]: 57.5%; viability, T/C [23]: 33.7%; viability, T/C [24]: 16.6%; viability, T/C [25]: 49.9%; viability, T/C [26]: 53.5%; viability, T/C [27]: 53.1%; viability, T/C [28]: 39.8%; viability, T/C [29]: 39.2%; viability, T/C [30]: 25.5% |
| O=C(c1cc(Cc2n[nH]c(=O)c3ccccc23)ccc1F)N1CCN(C(=O)C2CC2)CC1 + Cc1cncc(-c2nc(NCCc3c[nH]c4ccccc34)c3ncn(C(C)C)c3n2)c1 | > 10000 nM | > 10000 nM | > 10000 nM | > 10000 nM | < 31.6 nM | 74.1% | 75.8% | 83.6% | 75.6% | 102% | 100% | 84.9% | 94.2% | 95.5% | 83.7% | 90.2% | 91.4% | 84.9% | 91.2% | 79.3% | viability, T/C [16]: 80.2%; viability, T/C [17]: 81.7%; viability, T/C [18]: 75.8%; viability, T/C [19]: 90.7%; viability, T/C [20]: 78.7%; viability, T/C [21]: 96.6%; viability, T/C [22]: 75.6%; viability, T/C [23]: 62.9%; viability, T/C [24]: 80.1%; viability, T/C [25]: 50.1%; viability, T/C [26]: 46.4%; viability, T/C [27]: 46.4%; viability, T/C [28]: 33.3%; viability, T/C [29]: 44.9%; viability, T/C [30]: 34.7% |
